In patent US10774083B2, “Heterocyclic amide compound” (TAKEDA PHARMACEUTICAL COMPANY LIMITED, priority 2016, dated 2020):

Key:
[1] = tested on: human ovarian cancer cells A2780; assay: proliferation inhibitory activity against human ovarian cancer cell A2780 (CellTiter-Glo); type: cell-based; conditions: A2780, 72 h, 1 μM test compound, 3 days of culture, read-out: proliferation inhibitory rate (%) of A2780 cells
Outline: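 A2780 cells in RPMI-1640 with 10% FBS, compound added the day after seeding and cultured 3 days. Viability by CellTiter-Glo luminescence. Inhibition (%) calculated with cell-free wells as 100% inhibition.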

[2] = target: T1, human PRS protein (His-Avi-hEPRS (998-1512)) (Homo sapiens, UniProt P07814); assay: PRS inhibitory activity ([32P]pyrophosphate exchange enzyme assay); type: biochemical; conditions: 300 nM test compound; read-out: inhibitory rate (%) of PRS
T1 construct: to construct His-Avi-hEPRS (998-1512) expression plasmid; His tag (N); Avi tag (N); TEV cleavage site (ENLYFQG, then S; inferred from the forward primer hEPRS-TEV-NheF) (N); made in house; host or cells: E. coli BL21(DE3)
T1 sequence (P07814 998-1512 limits assumed): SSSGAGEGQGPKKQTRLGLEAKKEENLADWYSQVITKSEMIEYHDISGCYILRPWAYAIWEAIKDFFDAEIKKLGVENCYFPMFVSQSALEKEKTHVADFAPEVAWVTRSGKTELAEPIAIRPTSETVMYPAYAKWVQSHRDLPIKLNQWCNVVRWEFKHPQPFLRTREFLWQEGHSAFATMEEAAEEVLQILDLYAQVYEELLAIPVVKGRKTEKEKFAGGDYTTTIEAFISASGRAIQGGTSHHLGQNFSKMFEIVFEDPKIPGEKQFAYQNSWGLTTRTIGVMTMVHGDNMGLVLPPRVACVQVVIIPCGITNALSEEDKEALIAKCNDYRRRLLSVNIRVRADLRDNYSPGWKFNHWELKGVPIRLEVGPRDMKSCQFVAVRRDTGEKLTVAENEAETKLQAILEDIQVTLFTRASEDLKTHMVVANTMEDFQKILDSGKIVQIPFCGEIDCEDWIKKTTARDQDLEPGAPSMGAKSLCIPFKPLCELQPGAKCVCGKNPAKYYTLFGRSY
Outline: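 Compound was pre-incubated 60 min with 40 nM His-Avi-hEPRS (998-1512) (stock, E. coli-expressed) in Tris pH 7.5/KCl/DTT/Tween/MgCl2. Reaction began with substrate mix containing 300 μM ATP, 160 μM L-proline, 400 μM [32P]pyrophosphate (stock levels) and ran 30 min at room temperature. Charcoal-bound radioactivity was counted; inhibition was relative to no-reaction control.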

inhibition at 0.3 µM [2]: 101%
SMILES: Cc1cc(N2CC[C@@](C#N)(C3CC3)C2=O)cc(C(=O)NCc2cc(F)cc(-c3cnn(C)c3)c2)n1 [Example 159, 4-((3S)-3-cyano-3-cyclopropyl-2-oxopyrrolidin-1-yl)-N-(3-fluoro-5-(1-methyl-1H-pyrazol-4-yl)benzyl)-6-methylpyridine-2-carboxamide]
inhibition at 1 µM [1]: 96%
